Where two headings read alike, the source gives them in different places.
Columns and labels:
[1] = Plasma stability assay; type: in vitro ADME; settings: pH 7.4, 37° C., 1 μM
Procedure: The stock solution of 10 mM of test compound in DMSO was prepared and stored at 4° C. 25 μM stock of test compound was prepared in acetonitrile: water by diluting from 10 mM stock (i.e. 2.5 μL of 10 mM stock solution was added to 997.5 μL of acetonitrile: water (50:50). The frozen plasma was thawed at room temperature and centrifuged at 1400×RCF (relative centrifugal force) 4° C., for 15 minutes. Approximately 90% of the clear supernatant fraction was transferred to a separate tube and was used for the assay.
For 0 min samples, plasma was heat inactivated at 56° C. for 45 min. To 72 μL of heat inactivated plasma, 3 μL of 25 μM test compound was added. A 25 μL aliquot of the mixture was taken and crashed with 200 μL of acetonitrile containing internal standard and further processed along with other time points. For other time point samples, final working stock of 1 μM was prepared by diluting in plasma (i.e. 8 μL of 25 μM acetonitrile:water stock was added to 192 μL of plasma). 200 μL of plasma containing the test compound was incubated for 2 hrs at 37° C. in shaker water bath with gentle shaking. 25 μL aliquot of sample at 0, 15, 30, 60 and 120 min was precipitated immediately with 200 μL of acetonitrile containing internal standard and centrifuged at 4000×RCF, 4° C. for 20 minutes. 150 μL of supernatant was diluted with 150 μL of water and analyzed on LC-MS/MS.

[2] = Solubility assay (pH 7.4 pION buffer, UV); type: physicochemical; settings: pH 7.4 buffer, 18 hours incubation
Procedure: 5 μL of 20 mM DMSO stock from the stock plate was added to the reaction deep well plate containing 495 μL of pH 7.4 pION buffer (including DMSO control) respectively and the samples were mixed and incubated for 18 hours. The plate was sealed well during the incubation process. The DMSO content in the sample was <1.0%. The concentration in deep well plates was 200 μM. 4 μL of 20 mM stock (including DMSO control) was added to 996 μL of acetonitrile to prepare the working stock plate. 75 μL of working stock was added to 75 μL of blank buffer and read on spectrophotometer as reference plate at 240 nm. At the end of the incubation period, 100 μL of sample from storage plate was vacuum filtered using a filter plate. This step wets the filters and the filtrate was discarded. Another 200 μL of the sample from deep well plate was vacuum filtered in to a new filter collection plate. 75 μL of the filtrate from the filter collection plate was transferred to a UV sample plate. 75 μL of acetonitrile was added to this UV plate. The solution was mixed and the spectrum was read using the UV spectrophotometer at 240 nm. Plates were read on spectramax using SoftMax Pro software version 5.3.

[3] = tested on: TDP1+/+ MEFs; test: Cytotoxicity assay, TDP1+/+ MEFs; type: cell-based
Procedure: (§1) The percent inhibition of viability for each concentration of compound was calculated with respect to the control and IC50 (μM) values were estimated. Each point corresponds to the mean±S.D of at least three experiments in duplicates. Error bars represent SD (n=3).

[4] = tested on: TDP1−/− cells; test: Cytotoxicity assay, TDP1−/−; settings: read-out: IC50 cytotoxicity TDP1−/−
Procedure: as §1

[5] = tested on: MCF7 cells; test: γH2AX assay (immunofluorescence confocal microscopy); type: cell-based, human; settings: after washing out from media
Procedure: Quantification of comparative ability of CPT and 18 to form DSBs was quantified after 3 hours and 5 hours by measuring γH2AX intensity per nucleus after treatment and after the removal of 18 or CPT was obtained from immunofluorescence confocal microscopy. […] But CPT-induced γH2AX have a short half-life. […] (T. Furuta. J. Biol. Chem. 2003, 278, 20303-20312).

[6] = tested on: Caco-2 cell monolayer; settings: cited from earlier work
[7] = tested on: noncancerous human embryonic kidney (HEK293) cells; test: Cytotoxicity assay, HEK293; settings: read-out: IC50 cytotoxicity HEK293; HEK293 (noncancerous)
[8] = Caco-2 permeability (21 day culture of Caco-2 cell monolayer); type: in vitro ADME; settings: human; for recovery at 120 min, 10 μM: Caco-2, pH 7.4, Caco-2
Procedure: 5 mL of 100 mM sodium pyruvate, 5 mL of 10× non-essential amino acids, 5 mL of penstrep were added to 100 mL of heat inactivated foetal bovine serum to 385 mL of DMEM aseptically and mixed thoroughly. One vial of Hank's balanced salt (Sigma-H1387) was dissolved in 900 mL of milli Q water; adjusted the pH to 7.4 and made up the volume to 1000 mL with the same. The solution was filter sterilized and stored at 4° C. Stock solution of test compound (10 mM) was prepared in DMSO. 10 mM stock was diluted with HBSS Buffer to a final concentration of 10 μM.
250 μL of DMEM was added to the basal compartment of 96 well multi-screen Caco-2 plate and seeded 12000 cells/well (0.16×10^6 cells/ml) in all the apical wells required and one well with only media as blank without cells, placed the Caco-2 plate in CO2 incubator at 37° C. for proliferation of cells.
On the day of assay, medium was removed and washed twice with HBSS Buffer and incubated with HBSS buffer for 30 min in an incubator and wells with TEER values >230 ohm·cm^2 were selected for the incubation. 75 μL of test compound was added to apical wells and 250 μL of HBSS buffer with 2% BSA was added to basal wells. 25 μL of basal samples was collected at 120 min and processed as stated below.
250 μL of test compound was added to basal wells and 75 μL of HBSS buffer with 2% BSA was added to apical wells. 25 μL of apical samples was collected at 120 min and processed as stated below.
Single point calibration curve in HBSS buffer with 2% BSA was used. Donor samples were diluted 1:1 with HBSS containing 2% BSA and receiver samples were diluted with 1.1 HBSS buffer and precipitated with 200 μL of acetonitrile containing internal standard and vortexed for 5 min @ 1000 rpm, centrifuged at 4000 rpm for 10 min. Finally 100 μL of supernatant was diluted with 200 μL of water and submitted for LC-MS/MS analysis.

[9] = tested on: calf thymus (CT) DNA; test: Ethidium bromide (EtBr) displacement assay; type: binding; settings: 1 μM EtBr, 5 nM CT DNA, 0-200 μM compound
[10] = tested on: human colon carcinoma cell lines (HCT116); test: Cytotoxicity assay, HCT116; settings: HCT-116, read-out: IC50 cytotoxicity HCT116
[11] = Cytotoxicity assay, HEK293; settings: human
[12] = tested on: human ovarian adenocarcinoma cell lines (NIH:OVCAR-3); test: Cytotoxicity assay, NIH:OVCAR-3; settings: OVCAR-3, read-out: IC50 cytotoxicity NIH:OVCAR-3
[13] = Lipophilicity assay (octanol/buffer Log D); settings: octanol / sodium phosphate buffer pH 7.4
Procedure: 1.56 g NaH2PO4.2H2O was dissolved in 0.5 L water in a 1 L beaker. After adjusting pH to 7.4 using NaOH solution, the volume was made up to 1 L. Equal volumes of sodium phosphate buffer (10 mM, pH 7.4) and n-octanol were added to a separation funnel and mixed thoroughly by shaking and inverting the funnel several times. The two layers were allowed to separate for 2 days and then dispensed in two separate glass bottles. 10 mM stock solution was prepared in 100% DMSO and stored at 4° C. 500 μL of organic phase (1-octanol) was added to each well of a 2 mL deep well plate, followed by 500 μL of buffer and 15 μL of test substance was added. The plate was vortexed for 1 hr on a plate shaker at 1200 rpm. After incubation, the samples were allowed to equilibrate for 20 min and then centrifuged at 4000 rpm for 30 min for complete phase separation and analysed by LC-UV.
Log D=Log(area of octanol/area of buffer)
Mean, SD and % CV for each set of triplicates were calculated

Structure (SMILES) | Mean % remaining at 2 hrs in human Plasma [1] | Avg. Solubility (μg/mL) at pH 7.4 [2] | IC50 [3] | IC50 ([4]; TDP1−/−) | persistence of γH2AX foci / DSBs after removal of drug [5] | Papp Apical to Basal [6] | Papp Basal to Apical [6] | IC50 [7] | recovery at 120 min, 10 μM ([8]; read-out: A to B % Recovery) | recovery at 120 min, 10 μM ([8]; read-out: B to A % Recovery) | Papp A→B at 120 min, 10 μM ([8]; pH 7.4, Caco-2, 10 μM, 120 min, read-out: Papp Apical to Basal) | Papp B→A at 120 min, 10 μM ([8]; pH 7.4, Caco-2, 10 μM, 120 min, read-out: Papp Basal to Apical) | IC50 [4] | displacement of bound EtBr (DNA intercalation) [9] | IC50 [10] | IC50 [11] | IC50 [12] | Log D @ pH 7.40 Mean [13]
CC[C@@]1(O)C(=O)OCc2c1cc1n(c2=O)Cc2cc3ccccc3nc2-1 [Camptothecin, reference compound] | 15.70% | 2.5 μg/mL | 2.8 ± 0.47 µM | 1.57 ± 0.21 µM | faster disappearance of γH2AX foci | 10.5 10^−6 cm/sec | 35.8 10^−6 cm/sec | 8.75 ± 0.63 µM |  |  |  |  |  |  |  |  |  | 
COc1ccc(-c2ccc3ncc(-c4nnco4)c(NCCCn4ccnc4)c3c2)cc1 [Compound 18, N-(3-(1H-imidazol-1-yl)propyl)-6-(4-methoxyphenyl)-3-(1,3,4-oxadiazol-2-yl)quinolin-4-amine] | 93.34% |  |  |  | persistent and less reversible DNA double-strand breaks (DSBs) |  |  |  | 33.2% | 44.2% | 7.42 ×10⁻⁶ cm/s | 11.6 ×10⁻⁶ cm/s | 1.02 µM | no displacement of fluorophore even at high concentration (200 μM) | 2.34 µM | 8.34 µM | 2.35 µM | 2.48

From patent publication US20210246128A1, “BICYCLE TOPOISOMERASE I INHIBITING COMPOUNDS, PROCESS FOR PREPARATION AND USE THEREOF” (Council of Scientific & Industrial Research, priority 2018, published 2021)
